Results as given in ChEMBL document CHEMBL1128043, “Synthesis of FK506-Cyclosporin hybrid macrocycles” (Bioorg Med Chem Lett, 1995).

What follows are molecules tested against Peptidyl-prolyl cis-trans isomerase FKBP1A (Homo sapiens, UniProt P62942) (assay: Binding affinity to FK506 binding protein 12 was determined).
Chain of Peptidyl-prolyl cis-trans isomerase FKBP1A (P62942 whole entry): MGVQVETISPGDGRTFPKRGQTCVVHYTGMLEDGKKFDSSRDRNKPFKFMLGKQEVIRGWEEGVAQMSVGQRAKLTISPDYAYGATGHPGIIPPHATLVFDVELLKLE
With `C=CC[C@@H]1/C=C(\C)C[C@H](C)C[C@H](OC)[C@@H](O)[C@@H](OC)C[C@@H](C)c2ncoc2C(=O)N2CCCC[C@H]2C(=O)O[C@H](/C(C)=C/[C@@H]2CC[C@@H](O)[C@H](OC)C2)[C@H](C)C(O)CC1=O` (stereo not given in full) the Kd was 0.344 µM.
In the case of `C=CC[C@@H]1/C=C(\C)C[C@H](C)C[C@H](OC)[C@@H](O)[C@@H](OC)C[C@@H](C)CC(=O)C(=O)N2CCCC[C@H]2C(=O)O[C@H](/C(C)=C/[C@@H]2CC[C@@H](O)[C@H](OC)C2)[C@H](C)[C@@H](O)CC1=O`, the Kd is reported as 0.32 µM.
For `CCCC1C(=O)CC[C@@H](C)[C@@H](CCc2cccnc2)OC(=O)[C@@H]2CCCN(C2)C(=O)C(=O)CSCC[C@@H](OC)C[C@@H](C)CC(=O)N1C` (stereo not given in full), the Kd was 0.644 µM.
With `CCC(C)C1C(=O)CC[C@@H](C)[C@@H](CCc2cccnc2)OC(=O)[C@@H]2CCCN(C2)C(=O)C(=O)CCSCC[C@@H](OC)C[C@@H](C)CC(=O)N1C` (stereo not given in full) the Kd was 0.09 µM.
In the case of `CCCC1C(=O)CC[C@@H](C)[C@@H](CCc2cccnc2)OC(=O)[C@@H]2CCCN(C2)C(=O)C(O)CC[S+]([O-])CC[C@@H](OC)C[C@@H](C)CC(=O)N1C` (stereo not given in full), the Kd is reported as > 1 µM.
